{"source": "patent US20200392497A1", "about": "“METHODS AND COMPOSITIONS FOR DETECTING AND PROMOTING CARDIOLIPIN REMODELING AND CARDIOMYOCYTE MATURATION AND RELATED METHODS OF TREATING MITOCHONDRIAL DYSFUNCTION” (University of Washington, priority 2017, published 2020)", "test_system": "HADHA Mut CMs", "assay": "Seahorse MitoStress assay, proton leak in fatty acid challenged HADHA Mut CMs", "assay_type": "cell-based, human", "details": "1 nM, 12D Glc+FA media, vs non-treated Mut CMs", "from_the_text": "To better understand the pathological state of HADHA Mut and KO CMs exposed to chronic FAs, their mitochondria were functionally assessed. […] Because exposure to FAs led to a reduction in mitochondrial membrane potential and reduced ATP production, it was postulated that this may be due in part to an increased proton leak.\nThe Seahorse XF96 extracellular flux analyzer was used to assess mitochondrial function as previously described [Kuppusamy, K. T., et al., Let-7 family of microRNA is required for maturation and adult-like metabolism in stem cell-derived cardiomyocytes. Proc Natl Acad Sci U.S.A., 2015]. The plates were pre-treated with 1:60 diluted Matrigel reduced growth factor (Corning). […] The OCR values were further normalized to the number of cells present in each well, quantified by the Hoechst staining (Hoechst 33342; Sigma-Aldrich) as measured using fluorescence at 355 nm excitation and 460 nm emission. […] ATP production was calculated as the difference between the basal respiration and respiration after oligomycin. Proton leak was calculated as the difference between respiration after oligomycin and after antimycin & rotenone. Cellular capacity to utilize palmitate as an energy source was calculated as the difference between the average OCR after second palmitate addition and the final respiration value before the second addition of palmitate. […]"}
{"substance": "elamipretide [SS-31]", "values": [{"measurement": "proton leak (OCR after oligomycin minus OCR after antimycin & rotenone)", "value": "significantly lower"}, {"measurement": "proton leak (OCR after oligomycin minus OCR after antimycin & rotenone)", "setting": "listed as elamipretide (SS-31)", "value": "rescued the increased proton leak"}]}
